Numbered stars: 1 amine (or outer) side, 2 acyl side, 3 side chain; on linkers, the order of the positions; unused ones are H or OH. Bridge positions count the residues as written; N and C are the ends. Square brackets hold non-standard residues; d marks the D form. Peptide text beside a SMILES is read from it. * marks the point of attachment. C20 diacid = O=C(O)CCCCCCCCCCCCCCCCCCC(=O)*; γGlu = O=C(O)[C@H](CCC(=O)[*:2])N[*:1]; NMeI = CC[C@H](C)[C@H](NC)C(=O)O; Sar = CNCC(=O)O
Tests used:
[1] = target: T1, human calcitonin receptor (hCTR2) (Homo sapiens, UniProt P30988); assay: hCTR2 assay: induction of cAMP (AlphaScreen cAMP Assay kit) in COS7 cells expressing hCTR2; format: cell-based
T1 construct: expressed in transfected cells
T1 sequence (P30988 25-474): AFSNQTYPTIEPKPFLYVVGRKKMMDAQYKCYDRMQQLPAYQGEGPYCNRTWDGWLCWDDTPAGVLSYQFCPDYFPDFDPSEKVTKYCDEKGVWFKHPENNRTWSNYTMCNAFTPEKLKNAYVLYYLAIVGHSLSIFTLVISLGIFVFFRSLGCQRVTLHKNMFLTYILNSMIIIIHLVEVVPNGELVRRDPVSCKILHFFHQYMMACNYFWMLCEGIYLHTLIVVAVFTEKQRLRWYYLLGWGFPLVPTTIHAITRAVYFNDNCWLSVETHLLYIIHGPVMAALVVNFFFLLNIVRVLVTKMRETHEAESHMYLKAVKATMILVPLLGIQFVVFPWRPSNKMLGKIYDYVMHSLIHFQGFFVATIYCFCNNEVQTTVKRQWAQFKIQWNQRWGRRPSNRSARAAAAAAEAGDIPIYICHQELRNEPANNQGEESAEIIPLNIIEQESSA
Summary of the method: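 COS7 stable hCTR2 clone (RAMP-free); peptide dose-response 15 min 37° C in Tyrode pH 7.4 + 100 µM IBMX + 0.1% casein; lysis 10 min RT; AlphaScreen cAMP; 4PL fit.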

[2] = target: T2, human amylin receptor 3 (hAMYR3) consisting of hCTR2 co-expressed with human Receptor Activity Modifying Protein 3 (hRAMP3) (Homo sapiens, UniProt O60896+P30988); assay: hAMYR3 assay: induction of cAMP (AlphaScreen cAMP Assay kit) in COS7 cells expressing hAMYR3; format: cell-based; conditions: cAMP induction in COS7 cells expressing hAMYR3; average of a minimum of 3 determinations; read-out: hAMY R3 EC50
T2 construct: expressed in transfected cells
T2 sequence (P30988 25-474): T1 sequence (P30988 25-474)
T2 sequence (O60896 24-148 partner): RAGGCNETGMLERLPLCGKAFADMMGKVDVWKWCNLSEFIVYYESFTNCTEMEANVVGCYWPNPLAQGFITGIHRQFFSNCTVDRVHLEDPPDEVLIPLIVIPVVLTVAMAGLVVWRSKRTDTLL
Summary of the method: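 Stable COS7 clone co-expressing hCTR2 and hRAMP3, stimulated 15 min at 37° C with increasing peptide in Tyrode buffer pH 7.4 with 100 µM IBMX and 0.1% casein. cAMP measured by AlphaScreen after lysis; EC50 and % efficacy versus pramlintide from 4PL fit.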

[3] = Solubility assessment (turbidity absorbance at 325 nm); format: physicochemical; conditions: stock 2 mg/ml diluted 1:1, ambient temperature (typically 25°C), n=1; for Solubility, Acetate buffer pH 4: 100 mM acetate buffer pH 4.0; for Solubility, Acetate buffer pH 5: 100 mM acetate buffer pH 5.0; for Solubility, Histidine buffer pH 6: 100 mM histidine buffer pH 6.0; for Solubility, Histidine buffer pH 7: 100 mM histidine buffer pH 7.0; for Solubility, Phosphate buffer pH 6: 100 mM phosphate buffer pH 6.0; for Solubility, Phosphate buffer pH 7: 100 mM phosphate buffer pH 7.0; for Solubility, Phosphate buffer pH 7.5: 100 mM phosphate buffer pH7.5
Summary of the method: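 Stock 2 mg/ml peptide, H2O/HCl pH 2.5; 1:1 into 100 mM buffers: acetate pH 4.0/5.0, His pH 6.0/7.0, phosphate pH 6.0/7.0/7.5. A280 + A325, ~25°C, n=1. Soluble ≥ 1 mg/ml if A325 ≤ 0.02.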

[4] = Assessment of physical stability: fibril formation detected with Thioflavin T (ThT), lag-time; format: physicochemical; conditions: 1 mg/ml peptide, 40 µM ThT, FND = Fibrillation not detected; for Fibrillation lag time (hours) pH 4.0 (Ac): 50 mM acetate buffer pH 4.0, 96 hours at 40°C; for Fibrillation lag time (hours) pH 7.0 (Ph): 50 mM phosphate buffer pH 7.0, 96 hours at 40°C
Protocol: Solutions containing (i) 1 mg/ml of test peptide, 40 µM ThT and 50 mM phosphate (Ph) buffer (pH 7.0), (ii) 1 mg/ml of test peptide, 40 µM ThT and 50 mM histidine (His) buffer (pH 7.0), and (iii) 1 mg/ml of test peptide, 40 µM ThT and 50 mM acetate (Ac) buffer (pH 4.0), were loaded in a 96-well black fluorescence plate (clear bottom) in triplicate. Data were collected at fixed intervals of 10 min, each preceded by 300 s of automixing (agitation), over a period of 96 hours at 40° C. Physical stability, expressed as lag-time of fibril formation (in hours), was defined as the intersection between two linear regressions representing the initial stable phase and the growth phase.

Compound | EC50 [1] [pM] | EC50 [2] [pM] | Solubility, Acetate buffer pH 4 [3] | Solubility, Acetate buffer pH 5 [3] | Solubility, Histidine buffer pH 6 [3] | Solubility, Histidine buffer pH 7 [3] | Solubility, Phosphate buffer pH 6 [3] | Solubility, Phosphate buffer pH 7 [3] | Solubility, Phosphate buffer pH 7.5 [3] | Fibrillation lag time (hours) pH 4.0 (Ac) [4] | Fibrillation lag time (hours) pH 7.0 (Ph) [4] | Fibrillation lag time (hours) pH 7.0 (His) ([4]; 50 mM histidine buffer pH 7.0, 96 hours at 40°C)
CC[C@H](C)[C@@H](C(=O)N[C@@H](CC(C)C)C(=O)N[C@@H](CO)C(=O)N[C@@H](CO)C(=O)N[C@H](C(=O)N[C@@H](CC(N)=O)C(=O)N[C@H](C(=O)NCC(=O)N[C@@H](CO)C(=O)N[C@@H](CC(N)=O)C(=O)N[C@H](C(=O)N1CCC[C@H]1C(N)=O)[C@@H](C)O)C(C)C)[C@@H](C)O)N(C)C(=O)CN(C)C(=O)[C@H](Cc1ccccc1)NC(=O)[C@H](CC(N)=O)NC(=O)[C@H](CC(N)=O)NC(=O)[C@H](CO)NC(=O)[C@H](CO)NC(=O)[C@H](Cc1c[nH]cn1)NC(=O)[C@H](Cc1c[nH]cn1)NC(=O)[C@H](CC(C)C)NC(=O)[C@H](Cc1ccccc1)NC(=O)[C@H](CCC(=O)O)NC(=O)[C@H](C)NC(=O)[C@H](CC(C)C)NC(=O)[C@H](CCCNC(=N)N)NC(=O)[C@H](CCC(N)=O)NC(=O)[C@@H](NC(=O)[C@H](C)NC(=O)[C@@H]1CSSC[C@H](NC(=O)[C@H](CCCNC(=N)N)NC(=O)CC[C@H](NC(=O)CCCCCCCCCCCCCCCCCCC(=O)O)C(=O)O)C(=O)N[C@@H](CC(N)=O)C(=O)N[C@@H]([C@@H](C)O)C(=O)N[C@@H](C)C(=O)N[C@@H]([C@@H](C)O)C(=O)N1)[C@@H](C)O [Compound 2, [19CD]-isoGlu-RC()NTATC()ATQRLAEFLHHSSNNF-Gly(Me)-Ile(Me)-LSSTNVGSNTP-NH2] ({C20 diacid-γGlu}-RCNTATCATQRLAEFLHHSSNNF[Sar][NMeI]LSSTNVGSNTP-NH2; disulfide 2-7) | 160 | 260 | SS (SS indicates solubility ≥ 1mg/ml) | SS (SS indicates solubility ≥ 1mg/ml) | SS (SS indicates solubility ≥ 1mg/ml) | SS (SS indicates solubility ≥ 1mg/ml) | SS (SS indicates solubility ≥ 1mg/ml) | SS (SS indicates solubility ≥ 1mg/ml) | II (II indicates solubility ≤ 1 mg/ml) | FND^&& | FND^&& | –
CC[C@H](C)[C@@H](C(=O)N[C@@H](CC(C)C)C(=O)N[C@@H](CO)C(=O)N[C@@H](CO)C(=O)N[C@H](C(=O)N[C@@H](CC(N)=O)C(=O)N[C@H](C(=O)NCC(=O)N[C@@H](CO)C(=O)N[C@@H](Cc1c[nH]cn1)C(=O)N[C@H](C(=O)N[C@@H](Cc1ccc(O)cc1)C(N)=O)[C@@H](C)O)C(C)C)[C@@H](C)O)N(C)C(=O)[C@H](C)NC(=O)CN(C)C(=O)[C@H](Cc1ccccc1)NC(=O)[C@H](CC(N)=O)NC(=O)[C@H](CC(N)=O)NC(=O)[C@H](CO)NC(=O)[C@H](CO)NC(=O)[C@H](Cc1c[nH]cn1)NC(=O)[C@H](Cc1c[nH]cn1)NC(=O)[C@H](CC(C)C)NC(=O)[C@H](Cc1ccccc1)NC(=O)[C@H](CCC(=O)O)NC(=O)[C@H](C)NC(=O)[C@H](CC(C)C)NC(=O)[C@H](CCCNC(=N)N)NC(=O)[C@H](CCC(N)=O)NC(=O)[C@@H](NC(=O)[C@H](C)NC(=O)[C@@H]1CSSC[C@H](NC(=O)[C@H](CCCCN)NC(=O)CC[C@H](NC(=O)CCCCCCCCCCCCCCCCCCC(=O)O)C(=O)O)C(=O)N[C@@H](CC(N)=O)C(=O)N[C@@H]([C@@H](C)O)C(=O)N[C@@H](C)C(=O)N[C@@H]([C@@H](C)O)C(=O)N1)[C@@H](C)O [Compound 3, [19CD]-isoGlu-KC()NTATC()ATQRLAEFLHHSSNNF-Gly(Me)-A-Ile(Me)-LSSTNVGSHTY-NH2] ({C20 diacid-γGlu}-KCNTATCATQRLAEFLHHSSNNF[Sar]A[NMeI]LSSTNVGSHTY-NH2; disulfide 2-7) | 1300 | – | SS (SS indicates solubility ≥ 1mg/ml) | SS (SS indicates solubility ≥ 1mg/ml) | SS (SS indicates solubility ≥ 1mg/ml) | II** (II indicates solubility ≤ 1 mg/ml) | SS (SS indicates solubility ≥ 1mg/ml) | II (II indicates solubility ≤ 1 mg/ml) | II (II indicates solubility ≤ 1 mg/ml) | FND | FND | FND
CC[C@H](C)[C@@H](C(=O)N[C@@H](CC(C)C)C(=O)N1CCC[C@H]1C(=O)N1CCC[C@H]1C(=O)N[C@H](C(=O)N[C@@H](CC(N)=O)C(=O)N[C@H](C(=O)NCC(=O)N[C@@H](CO)C(=O)N[C@@H](CC(N)=O)C(=O)N[C@H](C(=O)N1CCC[C@H]1C(N)=O)[C@@H](C)O)C(C)C)[C@@H](C)O)N(C)C(=O)[C@@H]1CCCN1C(=O)CN(C)C(=O)[C@H](Cc1ccccc1)NC(=O)[C@H](CC(N)=O)NC(=O)[C@H](CC(N)=O)NC(=O)[C@H](CO)NC(=O)[C@H](CO)NC(=O)[C@H](Cc1c[nH]cn1)NC(=O)[C@H](Cc1c[nH]cn1)NC(=O)[C@H](CC(C)C)NC(=O)[C@H](Cc1ccccc1)NC(=O)[C@H](CCC(=O)O)NC(=O)[C@H](C)NC(=O)[C@H](CC(C)C)NC(=O)[C@H](CCCNC(=N)N)NC(=O)[C@H](CCC(N)=O)NC(=O)[C@@H](NC(=O)[C@H](C)NC(=O)[C@@H]1CSSC[C@H](NC(=O)[C@H](CCCNC(=N)N)NC(=O)CC[C@H](NC(=O)CCCCCCCCCCCCCCCCCCC(=O)O)C(=O)O)C(=O)N[C@@H](CC(N)=O)C(=O)N[C@@H]([C@@H](C)O)C(=O)N[C@@H](C)C(=O)N[C@@H]([C@@H](C)O)C(=O)N1)[C@@H](C)O [Compound 175, [19CD]-isoGlu-RC()NTATC()ATQRLAEFLHHSSNNF-Gly(Me)-P-Ile(Me)-LPPTNVGSNTP-NH2] ({C20 diacid-γGlu}-RCNTATCATQRLAEFLHHSSNNF[Sar]P[NMeI]LPPTNVGSNTP-NH2; disulfide 2-7) | 200 | 200 | SS (SS indicates solubility ≥ 1mg/ml) | SS (SS indicates solubility ≥ 1mg/ml) | SS (SS indicates solubility ≥ 1mg/ml) | SS (SS indicates solubility ≥ 1mg/ml) | SS (SS indicates solubility ≥ 1mg/ml) | SS (SS indicates solubility ≥ 1mg/ml) | II (II indicates solubility ≤ 1 mg/ml) | FND | FND | –

Source: patent publication EP3046573B1, “AMYLIN ANALOGUES” (Zealand Pharma A/S, priority 2013, dated 2015)
